Experiments:
[1] = tested on: inhibitory activity present in serum from LB tumor-bearing mice; test: Titer of growth-inhibitory activity in serum from drug-treated LB tumor-bearing mice; assay type: in vivo; details: for effect on serum inhibitory activity of LB tumor-bearing mice: treatment of LB tumor-bearing mice
LB tumor cells [2] = test: Rescue of in vitro LB tumor inhibition mediated by m- or o-tyrosine by co-culturing with amino acids; assay type: cell-based, mice; details: co-culture with m- or o-tyrosine
Protocol: (§1) Each point (percentage of cpm incorporated by LB cells as compared with the control) represents the mean±SE of 3 experiments. Significance versus control, meta-tyrosine and peak 2: P<0.001 at >2.75 μg/mL; peak 2: P<0.05 at 2.75 μg/mL. ortho-tyrosine P<0.001 at 500 to 125 μg/mL; P<0.002 at 30 μg/mL. Peak 3: P<0.002 and P<0.01, at 31 and 15.5 μg/mL, respectively. Rescue of in vitro LB tumor inhibition mediated by meta-tyrosine (150 μg/mL)(B) or ortho-tyrosine (150 μg/mL) (C) by co-culturing with 150 μg/mL of individual protein amino acids. Each value represents the mean±SE of 8 to 18 determinations for (B) and 4 to 9 determinations for (C). a, P<0.01; c, P<0.001 versus meta- or ortho-tyrosine. Data with saline was similar to data obtained with each amino acid alone.

LB tumor = test: In vivo growth of s.c. LB tumor implants (primary, secondary under CR, established, ascitic); parameters: species or system mice
Protocol: Twenty mice received an s.c. implant of 1×10^6 LB cells in the right flank, and, 7 days later, an s.c. secondary implant of 1×10^5 LB tumor cells in the left flank. […] The remaining 10 mice received 0.2 mL of phenylalanine (500 μg/mL) at the site of the secondary implant, daily, for 8 days, starting 1 hour after the secondary inoculum [CR+Phe (-□-)]. Controls were 10 mice receiving 1×10^5 LB tumor cells in the left flank only [control (-Δ-)]. A fourth group received the tumor inoculum in the left flank but also meta-tyrosine at the site of tumor implant (0.2 mL of 500 μg/mL, n=10) or by the intraperitoneal route (0.5 mL of 1,000 μg/mL, n=6), daily, for 8 days, starting 1 hour after tumor inoculum [control+m-Tyr: (-▴-)]. A fifth group received the tumor inoculum in the left flank and also meta-tyrosine (0.2 mL of 500 μg/mL, n=5) at the site of tumor growth, daily for 5 days, starting (see arrow) when LB was an established tumor measuring 60 to 70 mm^3 [est. LB+m-Tyr: (-X-)]. Abscissa, days after tumor implant in the left flank. Ordinate, volume of the tumors implanted in the left flank. CR and control+m-Tyr versus control: P<0.001 at day 9 and P<0.002 at days 5 and 7; CR and control+m-Tyr versus CR+Phe: P<0.001 at days 5, 7 and […]; est. LB+m-Tyr versus control and CR+Phe: P<0.002 at day 9. Control+tyrosine or saline, control; CR+tyrosine or saline, CR. FIG. 6B is a microscopic view showing many tumor cells expressing Ki-67 protein in both CR+phenylalanine (B1) and control (B2) groups and few tumor cells expressing Ki-67 in both CR (B3) and control+meta-tyrosine (B4) groups (H×400). FIG. 6C illustrates a representative experiment showing the frequency distribution histogram of viable LB cells from a control tumor (C1), from a secondary tumor inhibited by CR (C2), and from a tumor inhibited by periodic intraumoral injection of meta-tyrosine (C3). Samples of tumor cells were collected 9 days after the s.c. inoculation of 1×10^5 LB tumor cells.

MC-C tumor = test: In vivo growth of s.c. MC-C fibrosarcoma implants; parameters: species or system mice; details: secondary MC-C implant in primary tumor-bearing mice, 0.2 ml of 500 μg/ml daily for 19 days at the site
Protocol: Twelve mice received a s.c. implant of 5×10^6 MC-C tumor cells in the right flank and 25 days later they received a secondary implant of 2×10^6 MC-C tumor cells in the left flank. […] The remaining 6 mice received 0.2 ml of phenylalanine (500 μg/ml) at the site of the secondary implant, daily, for 19 days, starting 1 hour later than the secondary implant. These secondary implants grew as in 6 controls only receiving the implant in the left flank (tumor volumes of secondary tumor+phenylalanine and of controls, 20 days after the implant in the left flank were =680±152 mm^3 and 524±88 mm^3, respectively). […] Significance: Secondary tumor vs. control: p<0.01; vs. secondary tumor+phenylalanine: p<0.02. Control+m-tyrosine vs. control and vs. secondary tumor+phenylalanine: p<0.02.

CEI tumor = test: In vivo growth of s.c. CEI epidermoid carcinoma implants; parameters: species or system mice; details: secondary CEI implant in primary tumor-bearing mice, 0.2 ml of 500 μg/ml daily for 19 days at the site
Protocol: Twelve mice received a s.c. implant of 1×10^6 CEI tumor cells in the right flank and 28 days later they received a secondary implant of 3×10^5 CEI tumor cells in the left flank. […] The remaining 6 mice received 0.2 ml of phenylalanine (500 μg/ml) at the site of the secondary implant, daily, for 19 days, starting 1 hour later than the secondary implant. These secondary implants grew as in 6 controls only receiving the implant in the left flank (tumor volumes of secondary tumor+phenylalanine and of controls, 20 days after the implant in the left flank were 358±38 mm^3 and 373±93 mm^3, respectively). […] Significance: Secondary tumor and control+m-tyrosine vs. control: p<0.01; vs. secondary tumor+phenylalanine: p<0.001.

ERK1 and ERK2 = test: Western blot of p-ERK 1/2 in LB tumor cells; assay type: cell-based, mice; details: added together with m-tyrosine, 250 μg/mL each, 3 minutes
Protocol: (§2) FIG. 8 illustrates the effect of meta-tyrosine on the expression of phosphorylated (p)-Erk 1/2 and p-STAT3 in LB tumor cells using Western blot: 3×10^5 LB tumor cells in 0.1 mL of medium were cultured in the presence of 0.1 mL of meta-tyrosine (m-Tyr; 250 μg/mL), phenylalanine (Phe, 250 μg/mL), meta-tyrosine (250 μg/mL)+phenylalanine (250 μg/mL), or saline for 3 minutes (to measure p-ERK 1/2) or for 8 hours (to measure p-STAT3). Positive control was obtained by treating LB cells with pervanadate. Controls with acting, total ERK 1/2, and total STAT3 were also added. FIG. 8A illustrates a representative experiment showing p-ERK 1/2 expression. FIG. 8B is a histogram showing the mean of 5 experiments; a, P<0.01 versus saline and versus meta-tyrosine+phenylalanine; P<0.02 versus phenylalanine. FIG. 8C illustrates a representative experiment showing p-STAT3 expression. […]
(§3) On this basis, we analyzed, first, the effect of m-tyrosine on ERK1 and ERK2 as 2 examples of protein kinases that are activated by the mitogen activated protein/extracellular signal-regulated kinase (MAP/ERK) signal transduction pathway that normally couples intracellular responses associated with cell proliferation, to the binding of growth factors to cell surface receptors (Kohno M, and Pouyssegur J. 2006. Targeting the ERK signaling pathway in cancer therapy. Ann Med; 38:200-211). […]

STAT3 = test: Western blot of p-STAT3 in LB tumor cells; assay type: cell-based, mice; details: added together with m-tyrosine, 250 μg/mL each, 8 hours
Protocol: as §2, §3

LB tumor cells [3] = test: In vitro LB tumor cell proliferation ([3H]-thymidine uptake); assay type: cell-based, mice; details: even with high concentrations
Protocol: as §1
Fractionation of serum from mice bearing a subcutaneous LB tumor (size≧2,000 mm^3) was carried out through several steps of purification (FIG. 1). Serum from normal mice was similarly fractioned as control. At all stages of the purification, the presence of the inhibitory factor was monitored by the [^3H]-thymidine uptake assay as a measure of LB tumor cell proliferation. First, serum was decomplemented and subjected to dialysis. The inhibitory factor was recovered only in the dialyzable fraction (MW<12,500 Da) and was then concentrated by lyophilization and applied successively to Sephadex G-25 and G-15 chromatographic columns, where activity was recovered at fractions corresponding to a molecular weight below 1,000 Da. These fractions were lyophilized and further purified with an HPLC column C18 in a gradient of acetonitrile in TFA (first HPLC). In 12 similar and independent experiments, growth inhibitory activity was systematically recovered in only 1 fraction eluted at near 20% acetonitrile (FIG. 2).
To test directly whether a “cocktail” of amino acids similar to that detected close to the “primary site” was more counteracting of the antitumor effects produced by m- and o-tyrosine than a “secondary site cocktail,” different concentrations of a mixture of m-tyrosine and o-tyrosine (ratio 1:1) were assayed on LB tumor cell proliferation, alone or together with a primary or a secondary site cocktail of amino acids.

[4] = serum of mice bearing s.c. LB tumor >2,000 mm^3, agent i.p. 48 and 24 hours before testing, titer = reciprocal of serum dilution producing 50% inhibition of [3H]thymidine uptake by LB cells

Row | Molecule | effect on serum inhibitory activity of LB tumor-bearing mice [1] | GIU50/mL (X ± SE) [1, 4] [GIU50/mL] | counteracting of the inhibitory effect produced by m- and o-tyrosine (LB tumor cells [2]) | further results
1 | CN(C)CCCN1c2ccccc2Sc2ccc(Cl)cc21 [Chlorpromazine, chlorpromazine] | significant reduction | – | – | GIU50/mL (X ± SE) ([1]; ip): 84 ± 19 GIU50/mL
2 | C[C@@H]1C[C@H]2[C@@H]3CCC4=CC(=O)C=C[C@]4(C)[C@@]3(F)[C@@H](O)C[C@]2(C)[C@@]1(O)C(=O)CO [Dexamethasone, dexamethasone] | – | – | – | GIU50/mL (X ± SE) ([1]; ip): 70 ± 18 GIU50/mL
3 | Nc1ccn([C@@H]2O[C@H](CO)[C@@H](O)C2(F)F)c(=O)n1 [Gemcitabine, gemcitabine] | significant reduction | 40 ± 6 | – | –
4 | COc1ccc2c(c1)c(CC(=O)O)c(C)n2C(=O)c1ccc(Cl)cc1 [INDO, indomethacin] | significant reduction | – | – | GIU50/mL (X ± SE) ([1]; ip): 142 ± 16 GIU50/mL
5 | COC(=O)[C@@H](N)CCCNC(=N)N[N+](=O)[O-] [L-NAME] | did not reduce | 266 ± 34 | – | –
6 | CCCCc1nc(Cl)c(CO)n1Cc1ccc(-c2ccccc2-c2nn[nH]n2)cc1 [Losartant, losartan] | did not reduce | – | – | GIU50/mL (X ± SE) ([1]; ip): 300 ± 30 GIU50/mL
7 | CC(Cc1ccc(O)c(O)c1)C(C)Cc1ccc(O)c(O)c1 (centres unmarked) [NDGA, nordihydroguaiaretic acid] | significant reduction | 116 ± 14 | – | –
8 | O=C1CCN(c2ccccc2)N1 [Phenidone, phenidone] | significant reduction | 103 ± 19 | – | –
9 | CC(CN1c2ccccc2Sc2ccccc21)N(C)C (centres unmarked) [Promethazine, promethazine] | significant reduction | 80 ± 9 | – | –
10 | N[C@@H](CC(=O)O)C(=O)O [aspartic acid] | – | – | counteracted | –
11 | N[C@@H](CCC(=O)O)C(=O)O [glutamic acid] | – | – | counteracted | –
12 | NC(=O)CC[C@H](N)C(=O)O [glutamine] | – | – | counteracted | –
13 | N[C@@H](Cc1c[nH]cn1)C(=O)O [histidine] | – | – | only counteracted the inhibitory effect produced by m-tyrosine | –
14 | N[C@@H](Cc1ccccc1)C(=O)O [phenylalanine, reference compound] | – | – | counteracted | expression of Ki-67 protein in tumor cells (LB tumor; control+m-tyrosine tumors or secondary implants treated with phenylalanine (FIG. 6B)): high expression; growth of secondary LB tumor implant otherwise inhibited by CR (LB tumor; periodically inoculated at the site of the secondary implant): grew similarly to controls; tumor volume of secondary tumor 20 days after the implant in the left flank (MC-C tumor): 680±152 mm^3; tumor volume of secondary tumor 20 days after the implant in the left flank (CEI tumor): 358±38 mm^3; effect on the m-tyrosine-induced reduction of ERK1/ERK2 activation (ERK1 and ERK2): reversed that effect; effect on the m-tyrosine-induced reduction of STAT3 activation (STAT3): reversed that effect
15 | N[C@@H](Cc1ccc(O)cc1)C(=O)O [tyrosine, 4-hydroxyphenylalanine] | – | – | did not reduce | effect on LB cells in vitro (LB tumor cells [3]): innocuous
16 | Catalase | significant reduction | 49 ± 5 | – | –

From patent US20140323575A1, “TYROSINE ISOMERS AS THERAPEUTIC AGENTS” (CONSEJO NACIONAL DE INVESTIGACIONES CIENTIFICAS Y TECNICAS …, priority 2011, published 2014)
